Among the data in patent US10717733B2, “Haloallylamine indole and azaindole derivative inhibitors of lysyl oxidases and uses thereof” (PHARMAXIS LTD., priority 2016, dated 2020) are IC50 values, retold here.

Structures can show the parent of a compound that is named as a salt.

What all share (type): biochemical
One test concerns the target Bovine LOX (Bos taurus (Bovine), UniProt P33072). In words: LOX inhibition, peroxidase-coupled Amplex Red amine oxidase assay. To be noted: 30 min preincubation at 37° C., putrescine substrate. The text has this: (§1) Method to Determine the Ability of Compounds of the Invention to Inhibit LOX and LOXL1-4 from Different Sources
Lysyl oxidase (LOX) is an extracellular copper dependent enzyme which oxidizes peptidyl lysine and hydroxylysine residues in collagen and lysine residues in elastin to produce peptidyl alpha-aminoadipic-delta-semialdehydes. […] There are five LOX family members; these are LOX, LOXL1, LOXL2, LOXL3 and LOXL4. LOX and LOXL family members can be acquired as recombinant active proteins from commercial sources, or extracted from animal tissues like bovine aorta, tendons, pig skin; or prepared from cell cultures. The inhibitory effects of the compounds of the present invention were tested against the given LOX-LOXL preparation using a high-throughput coupled colorimetric method (Holt A. and Palcic M., A peroxidase-coupled continuous absorbance plate-reader assay for flavin monoamine oxidases, copper-containing amine oxidases and related enzymes. Nat. Protoc. 2006; 1: 2498-2505). The assay was developed using either 384 or 96 well format. Briefly, in a standard 384 well plate assay 25 μL of a dilution of any of the isoenzymes and orthologues in 1.2 M urea, 50 mM sodium borate buffer (pH 8.2) were added into each well in the presence of 1 μM mofegiline and 0.5 mM pargyline (to inhibit SSAO and MAO-B and MAO-A, respectively). […] of a reaction mixture containing twice the KM concentration of putrescine (Sigma Aldrich, e.g. 20 mM for LOX, or 10 mM for LOXL2 and LOXL3), 120 μM Amplex Red (Sigma Aldrich) and 1.5 U/mL horseradish peroxidase (Sigma Aldrich) prepared in 1.2 M urea, 50 mM sodium borate buffer (pH 8.2) were then added to the corresponding wells. The above volumes were doubled in the case of 96 wells plate. The fluorescence (RFU) was read every 2.5 min for 30 min at a range of temperatures from 37° to 45° C., excitation 565 nm and emission 590 (Optima; BMG labtech). The slope of the kinetics for each well was calculated using MARS data analysis software (BMG labtech) and this value was used to deduce the IC50 value (Dotmatics).

The target in another test is Human LOXL2 (Homo sapiens (Human), UniProt Q9Y4K0). In words: LOXL2 inhibition, peroxidase-coupled Amplex Red amine oxidase assay. To be noted: 30 min preincubation at 37° C., putrescine substrate.
Excerpt: as §1
Lysyl oxidase (LOX) is an extracellular copper dependent enzyme which oxidizes peptidyl lysine and hydroxylysine residues in collagen and lysine residues in elastin to produce peptidyl alpha-aminoadipic-delta-semialdehydes. […] There are five LOX family members; these are LOX, LOXL1, LOXL2, LOXL3 and LOXL4. LOX and LOXL family members can be acquired as recombinant active proteins from commercial sources, or extracted from animal tissues like bovine aorta, tendons, pig skin; or prepared from cell cultures. The inhibitory effects of the compounds of the present invention were tested against the given LOX-LOXL preparation using a high-throughput coupled colorimetric method (Holt A. and Palcic M., A peroxidase-coupled continuous absorbance plate-reader assay for flavin monoamine oxidases, copper-containing amine oxidases and related enzymes. Nat. Protoc. 2006; 1: 2498-2505). The assay was developed using either 384 or 96 well format. Briefly, in a standard 384 well plate assay 25 μL of a dilution of any of the isoenzymes and orthologues in 1.2 M urea, 50 mM sodium borate buffer (pH 8.2) were added into each well in the presence of 1 μM mofegiline and 0.5 mM pargyline (to inhibit SSAO and MAO-B and MAO-A, respectively). Test compounds were dissolved in DMSO and tested in a Concentration Response Curve (CRC) with 11 data points, typically in the micromolar or nanomolar range after incubation with the enzyme for 30 min at 37° C. Twenty five L of a reaction mixture containing twice the KM concentration of putrescine (Sigma Aldrich, e.g. 20 mM for LOX, or 10 mM for LOXL2 and LOXL3), 120 μM Amplex Red (Sigma Aldrich) and 1.5 U/mL horseradish peroxidase (Sigma Aldrich) prepared in 1.2 M urea, 50 mM sodium borate buffer (pH 8.2) were then added to the corresponding wells. The above volumes were doubled in the case of 96 wells plate. The fluorescence (RFU) was read every 2.5 min for 30 min at a range of temperatures from 37° to 45° C., excitation 565 nm and emission 590 (Optima; BMG labtech). The slope of the kinetics for each well was calculated using MARS data analysis software (BMG labtech) and this value was used to deduce the IC50 value (Dotmatics).

The target in test [1] is human recombinant SSAO/VAP-1 (Homo sapiens (Human), UniProt Q16853). In words: Inhibition of human recombinant SSAO/VAP-1 amine oxidase activity. To be noted: 30 min preincubation at 37° C., 600 μM benzylamine. The protocol: Method to Determine the Ability of Compounds of Formula I to Inhibit Human Recombinant SSAO/VAP-1
Human recombinant SSAO/VAP-1 amine oxidase activity was determined using the coupled colorimetric method as described for monoamine oxidase, copper-containing amine oxidases and related enzymes (Holt A. and Palcic M., A peroxidase-coupled continuous absorbance plate-reader assay for flavin monoamine oxidases, copper-containing amine oxidases and related enzymes. Nat Protoc 2006; 1: 2498-2505). Briefly, a cloned cDNA template corresponding to residues 34-763 of human SSAO/VAP-1, and incorporating a mouse Ig kappa (κ) signal sequence, N-terminal flag epitope tag and tobacco etch virus (TEV) cleavage site, was assembled in a mammalian expression vector (pLO-CMV) by Geneart AG. This vector containing human SSAO/VAP-1 residues was transfected into CHO-K1 glycosylation mutant cell line, Lec 8. A clone stably expressing human SSAO/VAP-1 was isolated and cultured in large scale. Active human SSAO/VAP-1 was purified and recovered using immunoaffinity chromatography. This was used as the source for SSAO/VAP-1 activity. A high-throughput colorimetric assay was developed using either 96 or 384 well format. Briefly, in a standard 96 well plate assay 50 μL of purified human SSAO/VAP-1 (0.25 μg/mL) in 0.1 M sodium phosphate buffer (pH 7.4) was added into each well. Test compounds were dissolved in DMSO and tested in a Concentration Response Curve (CRC) with 4-11 data points, typically in the micromolar or nanomolar range after incubation with human SSAO/VAP-1 for 30 min at 37° C. After 30 min incubation, 50 μL of the reaction mixture containing 600 μM benzylamine (Sigma Aldrich), 120 μM Amplex Red (Sigma Aldrich) and 1.5 U/mL horseradish peroxidase (Sigma Aldrich) prepared in 0.1 M sodium phosphate buffer (pH 7.4) were added to the corresponding well. The fluorescence unit (RFU) was read every 2.5 min for 30 min at 37° C. excitation 565 nm and emission 590 (Optima; BMG labtech). The slope of the kinetics for each well was calculated using MARS data analysis software (BMG labtech) and this value was used to deduce the IC50 value (Dotmatics).

The next test has as its target Recombinant human MAO-B (Homo sapiens (Human), UniProt P27338). The test is described as follows: Inhibition of human recombinant MAO-B. To be noted: benzylamine 100 μM. As to the method: Method to Determine the Ability of Compounds of Formula I to Inhibit Human Recombinant MAO-B
The specificity of the compounds of this invention was tested by determining their ability to inhibit MAO-B activities in vitro. Recombinant human MAO-B (0.06 mg/mL; Sigma Aldrich) was used as source of MAO-B enzyme activities. The assay was performed in a similar way as for human SSAO/VAP-1 (Example 66) except, the substrate benzylamine was used at 100 μM.

Chain of human recombinant SSAO/VAP-1 (Q16853 34-763): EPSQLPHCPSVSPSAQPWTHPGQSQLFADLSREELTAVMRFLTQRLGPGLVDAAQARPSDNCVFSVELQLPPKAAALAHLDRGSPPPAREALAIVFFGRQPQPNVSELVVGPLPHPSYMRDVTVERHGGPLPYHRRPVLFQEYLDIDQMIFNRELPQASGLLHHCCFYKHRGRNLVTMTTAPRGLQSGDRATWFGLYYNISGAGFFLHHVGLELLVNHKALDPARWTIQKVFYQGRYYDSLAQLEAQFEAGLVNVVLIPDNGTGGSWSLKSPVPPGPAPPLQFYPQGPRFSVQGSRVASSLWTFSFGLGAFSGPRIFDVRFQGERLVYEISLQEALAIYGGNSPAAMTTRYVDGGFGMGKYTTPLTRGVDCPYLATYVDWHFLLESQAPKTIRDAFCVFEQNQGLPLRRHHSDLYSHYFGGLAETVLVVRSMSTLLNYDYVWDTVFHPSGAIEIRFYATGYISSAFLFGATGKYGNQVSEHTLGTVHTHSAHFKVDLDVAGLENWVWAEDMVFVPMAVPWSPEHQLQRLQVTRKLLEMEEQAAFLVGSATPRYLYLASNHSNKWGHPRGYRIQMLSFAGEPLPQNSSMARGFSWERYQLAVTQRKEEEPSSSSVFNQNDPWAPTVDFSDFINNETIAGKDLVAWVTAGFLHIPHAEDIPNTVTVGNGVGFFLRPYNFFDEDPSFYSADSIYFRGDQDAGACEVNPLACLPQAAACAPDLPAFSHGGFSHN
Chain of Recombinant human MAO-B (P27338 whole entry): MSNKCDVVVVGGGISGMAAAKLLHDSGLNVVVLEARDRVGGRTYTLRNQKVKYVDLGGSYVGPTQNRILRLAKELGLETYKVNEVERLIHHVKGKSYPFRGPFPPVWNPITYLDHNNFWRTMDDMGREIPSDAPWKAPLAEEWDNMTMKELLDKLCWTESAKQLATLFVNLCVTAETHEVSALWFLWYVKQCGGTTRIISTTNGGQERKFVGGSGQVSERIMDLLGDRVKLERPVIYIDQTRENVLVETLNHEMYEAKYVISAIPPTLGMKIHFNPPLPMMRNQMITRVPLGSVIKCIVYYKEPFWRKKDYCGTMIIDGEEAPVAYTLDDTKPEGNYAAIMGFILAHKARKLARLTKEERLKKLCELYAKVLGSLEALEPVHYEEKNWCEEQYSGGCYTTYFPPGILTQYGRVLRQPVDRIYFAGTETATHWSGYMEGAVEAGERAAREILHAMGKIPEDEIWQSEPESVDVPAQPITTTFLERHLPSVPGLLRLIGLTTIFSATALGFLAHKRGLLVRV
Chain of Human LOXL2 (Q9Y4K0 26-774): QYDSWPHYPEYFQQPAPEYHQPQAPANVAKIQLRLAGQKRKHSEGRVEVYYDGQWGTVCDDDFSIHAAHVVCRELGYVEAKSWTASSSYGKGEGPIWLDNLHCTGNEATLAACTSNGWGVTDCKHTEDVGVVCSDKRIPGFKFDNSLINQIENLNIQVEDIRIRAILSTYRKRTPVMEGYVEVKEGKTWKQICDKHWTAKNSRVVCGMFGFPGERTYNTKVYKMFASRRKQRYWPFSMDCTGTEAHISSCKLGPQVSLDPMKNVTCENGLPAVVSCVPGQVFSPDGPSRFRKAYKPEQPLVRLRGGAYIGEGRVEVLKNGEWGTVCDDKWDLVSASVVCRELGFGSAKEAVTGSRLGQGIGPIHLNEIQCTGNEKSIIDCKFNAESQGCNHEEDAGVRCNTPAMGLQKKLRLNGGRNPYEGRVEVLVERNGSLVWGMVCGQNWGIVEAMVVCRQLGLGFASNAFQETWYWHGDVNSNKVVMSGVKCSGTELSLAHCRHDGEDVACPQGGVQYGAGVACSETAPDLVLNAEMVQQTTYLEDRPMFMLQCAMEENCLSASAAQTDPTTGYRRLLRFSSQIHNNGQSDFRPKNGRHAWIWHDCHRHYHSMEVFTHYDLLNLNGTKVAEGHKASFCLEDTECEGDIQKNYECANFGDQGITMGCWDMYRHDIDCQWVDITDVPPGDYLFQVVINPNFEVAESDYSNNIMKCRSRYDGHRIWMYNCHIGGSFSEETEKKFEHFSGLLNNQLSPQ
Chain of Bovine LOX (P33072 170-418): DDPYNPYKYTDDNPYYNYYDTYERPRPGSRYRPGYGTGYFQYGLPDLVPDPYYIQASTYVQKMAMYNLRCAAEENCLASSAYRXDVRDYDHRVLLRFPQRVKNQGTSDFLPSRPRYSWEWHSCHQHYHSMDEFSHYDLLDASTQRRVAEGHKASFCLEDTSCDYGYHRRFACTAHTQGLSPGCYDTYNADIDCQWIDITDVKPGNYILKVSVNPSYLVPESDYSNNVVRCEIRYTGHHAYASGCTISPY

With `Cc1c(-c2cccc(S(=O)(=O)N(C)C)c2)c2cc(C(=O)O)c(F)cc2n1C/C(F)=C/CN` [Compound 21, (Z)-1-(4-amino-2-fluorobut-2-en-1-yl)-3-(3-(N,N-dimethylsulfamoyl)phenyl)-6-fluoro-2-methyl-1H-indole-5-carboxylic acid], the IC50 (usually the concentration that inhibits the measured activity by half) on Bovine LOX was above 300 nM; at Human LOXL2, below 300 nM; in test [1] it was above 3000 nM; on Recombinant human MAO-B it was above 3000 nM.

Regarding `Cc1c(-c2cncc(S(=O)(=O)N(C)C)c2)c2cc(C3CC3)ccc2n1C/C(F)=C/CN` [Compound 79, (Z)-5-(1-(4-amino-2-fluorobut-2-en-1-yl)-5-cyclopropyl-2-methyl-1H-indol-3-yl)-N,N-dimethylpyridine-3-sulfonamide], the IC50 is above 300 nM against Bovine LOX, below 300 nM at Human LOXL2, above 3000 nM in test [1] and above 3000 nM at Recombinant human MAO-B.

Take `Cc1c(-c2cncc(S(=O)(=O)N(C)C)c2)c2cc(C(=O)O)ccc2n1C/C(F)=C/CN` [Compound 40, (Z)-1-(4-amino-2-fluorobut-2-en-1-yl)-3-(5-(N,N-dimethylsulfamoyl)pyridin-3-yl)-2-methyl-1H-indole-5-carboxylic acid]: the IC50 at Bovine LOX is above 300 nM; against Human LOXL2, below 300 nM; in test [1] it was above 3000 nM; at Recombinant human MAO-B it was above 3000 nM.

On to `CN(C)S(=O)(=O)c1cccc(-c2c(Cl)n(C/C(F)=C/CN)c3ccc(S(C)(=O)=O)cc23)c1` [Compound 100, (Z)-3-(1-(4-amino-2-fluorobut-2-en-1-yl)-2-chloro-5-(methylsulfonyl)-1H-indol-3-yl)-N,N-dimethylbenzenesulfonamide], for which the half-maximal inhibitory concentration (IC50) at Bovine LOX was above 300 nM; at Human LOXL2, below 300 nM; in test [1], above 3000 nM; at Recombinant human MAO-B, above 3000 nM.

Consider `Cc1c(-c2cccc(S(=O)(=O)C(C)C)c2)c2nc(C(C)(C)O)ccc2n1C/C(F)=C/CN` [Compound 117, (Z)-2-(1-(4-amino-2-fluorobut-2-en-1-yl)-3-(3-(isopropylsulfonyl)phenyl)-2-methyl-1H-pyrrolo[3,2-b]pyridin-5-yl)propan-2-ol Dihydrochloride], for which the values for the IC50 against Bovine LOX and at Human LOXL2 were above 300 nM and below 300 nM, respectively.

In the case of `Cc1c(-c2ccc(F)cc2)c2cc(S(C)(=O)=O)ccc2n1C/C(F)=C/CN` [Compound 93, (Z)-3-fluoro-4-(3-(4-fluorophenyl)-2-methyl-5-(methylsulfonyl)-1H-indol-1-yl)but-2-en-1-amine], the IC50 on Bovine LOX is above 300 nM; on Human LOXL2 it was below 300 nM; in test [1], above 3000 nM; on Recombinant human MAO-B it was above 3000 nM.

In the case of `CNC(=O)c1ccc2c(n1)c(-c1cccc(S(=O)(=O)N(C)C)c1)c(C)n2C/C(F)=C/CN` [Compound 46, (Z)-1-(4-amino-2-fluorobut-2-en-1-yl)-3-(3-(N,N-dimethylsulfamoyl)phenyl)-N,2-dimethyl-1H-pyrrolo[3,2-b]pyridine-5-carboxamide], the IC50 at Bovine LOX was above 300 nM; on Human LOXL2, below 300 nM; in test [1], above 3000 nM; on Recombinant human MAO-B, above 3000 nM.

`Cc1c(-c2cncc(S(=O)(=O)N(C)C)c2)c2ncc(Cl)cc2n1C/C(F)=C/CN` [Compound 72, (Z)-5-(1-(4-amino-2-fluorobut-2-en-1-yl)-6-chloro-2-methyl-1H-pyrrolo[3,2-b]pyridin-3-yl)-N,N-dimethylpyridine-3-sulfonamide]: the IC50 against Bovine LOX was above 300 nM; at Human LOXL2, below 300 nM; in test [1], above 3000 nM; on Recombinant human MAO-B, above 3000 nM.

Consider `CCS(=O)(=O)c1cccc(-c2c(C)n(C/C(F)=C/CN)c3ccc(C)nc23)c1` [Compound 114, (Z)-4-(3-(3-(ethylsulfonyl)phenyl)-2,5-dimethyl-1H-pyrrolo[3,2-b]pyridin-1-yl)-3-fluorobut-2-en-1-amine Dihydrochloride], for which the values for the IC50 at Bovine LOX and on Human LOXL2 were above 300 nM and below 300 nM, respectively.

With `Cc1c(-c2cccc(S(C)(=O)=O)c2)c2nc(C(C)(C)O)ccc2n1C/C(F)=C/CN` [Compound 116, (Z)-2-(1-(4-amino-2-fluorobut-2-en-1-yl)-2-methyl-3-(3-(methylsulfonyl)phenyl)-1H-pyrrolo[3,2-b]pyridin-5-yl)propan-2-ol Dihydrochloride], the results for the IC50 against Bovine LOX and at Human LOXL2 were above 300 nM and below 300 nM, respectively.

With `Cc1c(-c2cccc(S(C)(=O)=O)c2)c2nc(CF)ccc2n1C/C(F)=C/CN` [Compound 115, (Z)-3-fluoro-4-(5-(fluoromethyl)-2-methyl-3-(3-(methylsulfonyl)phenyl)-1H-pyrrolo[3,2-b]pyridin-1-yl)but-2-en-1-amine Dihydrochloride], the values for the IC50 against Bovine LOX and against Human LOXL2 were above 300 nM and below 300 nM, respectively.

Take `CCS(=O)(=O)c1cccc(-c2c(C(C)C)n(C/C(F)=C/CN)c3ccc(C)nc23)c1` [Compound 113, (Z)-4-(3-(3-(ethylsulfonyl)phenyl)-2-isopropyl-5-methyl-1H-pyrrolo[3,2-b]pyridin-1-yl)-3-fluorobut-2-en-1-amine Dihydrochloride]: the 50% inhibitory concentration (IC50) was above 300 nM at Bovine LOX and below 300 nM against Human LOXL2.
